The values below come from patent US12522564B2, “Polymorphs of elafibranor” (GENFIT, priority 2021, dated 2026).

The nature of data set [1]: Saturation concentration of elafibranor in the crystallization solvent. Type of data set: physicochemical. The note with it: room temperature.
The subject of data set [2] is patients and healthy volunteers. The note with it: over 800 patients and healthy volunteers; cited from earlier work.
For a further data set, the system named is animal disease models. The note with it: cited from earlier work.
For data set [3] the following is noted: up to 2-year carcinogenicity studies; cited from earlier work.

Each structure is given as a SMILES string.

As to `CSc1ccc(C(=O)/C=C/c2cc(C)c(OC(C)(C)C(=O)O)c(C)c2)cc1` [Elafibranor, 2-(2,6-dimethyl-4-{3-[4-(methylsulfanyl)phenyl]-3-oxopropen-1-yl}phenoxy)-2-methylpropanoic acid], the “saturation concentration of elafibranor in the solvent” value (from here on “saturation concentration”) in data set [1] (N,N-dimethylacetamide) came to 11.9 mg/mL. The “saturation concentration” value in data set [1] (ethanol) was 28.7 mg/mL. Also, the “saturation concentration” value in data set [1] (methanol) turned out to be 17.7 mg/mL. Also, in data set [2], the HDL-C levels entry is “increase”; the “insulin sensitivity and glucose homeostasis” value is reported as “improvement”; the “markers of liver dysfunction, including ALAT, ASAT, γGT, ALP” value is “improvement”; the “plasma triglycerides and LDL-C” value is on record as “decrease”. In addition, in the data set with animal disease models, the “histological NASH parameters (steatosis, inflammation, fibrosis)” value is “efficacy”. Further, the “safety in full toxicological package” value in data set [3] was “absence of safety concern”.
